According to patent US20090042790A1, “TRANSMUCOSAL DELIVERY OF PEPTIDE DERIVATIVES” (NASTECH PHARMACEUTICAL COMPANY INC., priority 2005, published 2009):
*1 amine or outer side, *2 acyl side, *3 side chain or, on linkers, in order; H or OH if unused. Where a SMILES comes first, the peptide text is derived from it. Bridges are numbered along the chain shown (N, C = ends). [ ]: non-standard residue; d: D form. The star is where a group is joined. X1 = COc1ccc(C2CCC(N[*:1])(C(=O)[*:2])CC2)cc1; Pentanoyl = CCCCC(=O)*

Legend:
[1] = test system: male DOI mice (obesity mouse model system); assay: Cumulative food intake in male DOI mice; type: in vivo; settings: high dose group (doses 1.25, 2.5, 5 mg/kg); 16 and 24 hours after dose administration; vs 30% PEG control; FIG. 3
Method: The effect of the low molecular weight PEGylated MC4-RA and unmodified MC4-RA on food intake was evaluated under regular light cycle in male DOI mice (obesity mouse model system). Control mice were administered a 30% PEG formulation. For the unmodified MC4-RA in vivo study, individual subjects categorized into three separate study groups, based on dosage levels, were administered 1.25 mg/kg, 2.5 mg/kg or 5 mg/kg of unmodified MC4-RA. For the 2 kDa PEGylated MC4-RA in vivo study, individual subjects categorized into three separate study groups, again based on dosage levels, were administered 5 mg/kg, 10 mg/kg and 20 mg/kg 2 kDa PEGylated MC4-RA. The effective does is higher for the PEGylated MC4-RA due to the tripled molecular weight resulting from the conjugation of a 2 kDa PEG to the MC4-RA molecule.

[2] = biological target: T1, melanocortin-1 (MC1 receptor) (Homo sapiens, UniProt Q01726); assay: cAMP assay in HEK293 cells expressing the MC1 receptor; type: cell-based; settings: 1×10^−11 to 1×10^−5 M, FIG. 2, read-out: effective concentration to reach a 50% response level (EC50), cAMP production
T1 construct: expressed in transfected cells; host or cells: HEK293
Method: FIG. 2: The degree of MC4 receptor specificity of the 2 kDa PEGylated MC4-RA and the unmodified MC4-RA was compared. The ability to stimulate cAMP production in cells in vitro was assayed; HEK293 cells expressed the melanocortin-1 (MC1 receptor). A measured increase in cAMP levels indicated a lack of MC4 receptor specificity. The 2 kDa PEGylated and unmodified MC4-RA were incubated in a concentration range of approximately 1×10^−11 to 1×10^−5 M with HEK293 cells that were expressing the MC1 receptor. The maximum quantity of cAMP was normalized to 100% or “% Max Response” and the concentration of 2 kDA PEGylated or unmodified MC4-RA was shown as the log of the Molar concentration. The effective concentration to achieve a 50% response (EC50) is shown.
The degree of MC4 receptor specificity of the 2 kDa PEGylated MC4-RA and the unmodified MC4-RA was compared. […] In this instance, a measured increase in cAMP levels would indicate a lack of MC4 receptor specificity. […] The experiment was performed in triplicate and cAMP levels were measured with the cAMP Tropix assay kit. The maximum quantity of cAMP was normalized to 100% or “% Max Response” and the concentration of 2 kDa PEGylated or unmodified MC4-RA is shown as the log of the Molar concentration.

[3] = biological target: T2, melanocortin-4 cell receptor (MC4 receptor) (Homo sapiens, UniProt P32245); assay: cAMP assay in HEK293 cells expressing the MC4 receptor; type: cell-based; settings: 1×10^−11 to 1×10^−5 M, FIG. 1, read-out: effective concentration to reach a 50% response level (EC50), cAMP production
T2 construct: expressed in transfected cells; host or cells: HEK293
Method: FIG. 1: The ability of the 2 kDa PEGylated MC4-RA and unmodified MC-4RA to stimulate cAMP production in cells expressing the melanocortin-4 cell receptor (MC4 receptor) was compared. HEK293 cells expressing the MC4 receptor were incubated with either the 2 kDa PEGylated MC4-RA or the unmodified MC4-RA. The concentrations used for either MC4-RA in the cAMP assay ranged from approximately 1×10^−11 to 1×10^−5 M. The maximum quantity of cAMP was normalized to 100% or “% Max Response” and the concentration of 2 kDA PEGylated or unmodified MC4-RA was shown as the log of the Molar concentration. The effective concentration to achieve a 50% response (EC50) is shown.
An ideal property of any therapeutic agent is target specificity as induction, for example, of unwanted cell surface receptors and/or cell signaling pathways may lead to deleterious outcomes in the patient subject. […]
Potency was measured as the ability of the 2 kDa PEGylated MC4-RA or the unmodified MC4-RA to stimulate cAMP production in cells expressing the melanocortin-4 cell receptor (MC4 receptor). […] The experiment was performed in triplicate and cAMP levels were measured with the cAMP Tropix assay kit. The maximum quantity of cAMP was normalized to 100% or “% Max Response” and the concentration of 2 kDa PEGylated or unmodified MC4-RA is shown as the log of the Molar concentration.

[4] = test system: EpiAirway™ epithelial cell monolayer; assay: Transepithelial electrical resistance (TEER) of EpiAirway epithelial cell monolayer; type: cell-based; settings: positive TEER control
Method: The epithelial cells are grown on porous membrane-bottomed cell culture inserts at an air-liquid interface, which results in differentiation of the cells to a highly polarized morphology. The apical surface is ciliated with a microvillous ultrastructure and the epithelium produces mucus (the presence of mucin has been confirmed by immunoblotting). The inserts have a diameter of 0.875 cm, providing a surface area of 0.6 cm^2. The cells are plated onto the inserts at the factory approximately three weeks before shipping. One “kit” consists of 24 units.
These junctions confer a transepithelial resistance of several hundred ohms×cm^2 in excised airway tissues.

T2 sequence (P32245 whole entry): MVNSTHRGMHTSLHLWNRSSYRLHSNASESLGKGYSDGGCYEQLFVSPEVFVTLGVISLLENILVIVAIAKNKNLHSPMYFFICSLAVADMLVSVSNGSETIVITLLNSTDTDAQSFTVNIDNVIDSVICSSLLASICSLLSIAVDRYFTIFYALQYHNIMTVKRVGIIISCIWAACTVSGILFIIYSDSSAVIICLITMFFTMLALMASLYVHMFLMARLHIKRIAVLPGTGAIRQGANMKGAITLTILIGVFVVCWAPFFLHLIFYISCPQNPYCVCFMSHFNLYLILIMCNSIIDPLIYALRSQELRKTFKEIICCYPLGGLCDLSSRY
T1 sequence (Q01726 whole entry): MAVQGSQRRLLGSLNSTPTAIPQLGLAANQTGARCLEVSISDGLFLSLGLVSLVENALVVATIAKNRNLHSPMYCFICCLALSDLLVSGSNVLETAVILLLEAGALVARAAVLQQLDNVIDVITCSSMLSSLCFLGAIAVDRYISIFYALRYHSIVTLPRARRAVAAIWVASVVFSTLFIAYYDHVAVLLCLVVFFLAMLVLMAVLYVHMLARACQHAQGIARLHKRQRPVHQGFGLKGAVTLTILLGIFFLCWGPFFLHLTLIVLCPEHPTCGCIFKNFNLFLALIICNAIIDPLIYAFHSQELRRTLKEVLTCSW

Row | EC50 [2] [nM] | EC50 [3] [nM] | Molecule | cumulative food intake [1] | Average TEER Measurement ([4]; Table 3 formulation #11: 9% Triton X-100 only) | Average TEER Measurement ([4]; Table 5 formulation #17: 9% Triton X-100 only)
1 | ~800 | 0.5 | CCCCC(=O)N[C@H]1CCC(=O)NCCCC[C@@H](C(N)=O)NC(=O)[C@H](Cc2c[nH]c3ccccc23)NC(=O)[C@H](CCCNC(=N)N)NC(=O)[C@@H](Cc2ccccc2)NC(=O)C2(CCC(c3ccc(OC)cc3)CC2)NC1=O (some centres unmarked) [unmodified MC4-RA] (Pentanoyl-E[X1][dF]RWK-NH2; lactam 1-6) | significant reduction on cumulative food intake |  | 
2 |  |  | octylphenolpoly(ethyleneglycolether) [Triton X-100 ™] |  | 1.5 | 1.2
